What was measured:
[1] = target: CK1ε (Homo sapiens (Human), UniProt P49674); assay: CK1ε kinase assay (Caliper LABCHIP electrophoretic separation of fluoresceinated peptide substrate and product); type: biochemical; settings: 200 pM enzyme, 50 μM ATP, 22 hours at room temperature
Outline: (§1)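 Reactions ran 22 hours at room temperature and were stopped with EDTA. Phosphorylated product and unphosphorylated substrate were then separated electrophoretically. Compounds were tested at eleven concentrations, and IC50 values came from non-linear regression.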

[2] = target: CK1δ (Homo sapiens (Human), UniProt P48730); assay: CK1δ kinase assay (Caliper LABCHIP electrophoretic separation of fluoresceinated peptide substrate and product); type: biochemical; settings: 200 pM enzyme, 50 μM ATP, 22 hours at room temperature
Outline: as §1

[3] = test system: pancreatic tumor cell; settings: in vitro and in vivo; Brockschmidt et al., Gut 2008; cited from earlier work

Sequence of CK1ε (P49674 whole entry): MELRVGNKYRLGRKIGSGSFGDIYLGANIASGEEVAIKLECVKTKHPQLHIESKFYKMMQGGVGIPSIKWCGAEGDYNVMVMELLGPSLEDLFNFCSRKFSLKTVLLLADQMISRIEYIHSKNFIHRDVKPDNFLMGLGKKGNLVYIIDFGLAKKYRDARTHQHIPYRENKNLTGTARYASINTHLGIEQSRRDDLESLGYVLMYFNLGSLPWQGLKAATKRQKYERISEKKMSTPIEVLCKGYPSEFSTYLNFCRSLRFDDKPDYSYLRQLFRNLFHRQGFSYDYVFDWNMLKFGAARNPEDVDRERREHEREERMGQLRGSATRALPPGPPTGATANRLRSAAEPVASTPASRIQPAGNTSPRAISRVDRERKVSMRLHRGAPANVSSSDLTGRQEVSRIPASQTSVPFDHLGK
Sequence of CK1δ (P48730 whole entry): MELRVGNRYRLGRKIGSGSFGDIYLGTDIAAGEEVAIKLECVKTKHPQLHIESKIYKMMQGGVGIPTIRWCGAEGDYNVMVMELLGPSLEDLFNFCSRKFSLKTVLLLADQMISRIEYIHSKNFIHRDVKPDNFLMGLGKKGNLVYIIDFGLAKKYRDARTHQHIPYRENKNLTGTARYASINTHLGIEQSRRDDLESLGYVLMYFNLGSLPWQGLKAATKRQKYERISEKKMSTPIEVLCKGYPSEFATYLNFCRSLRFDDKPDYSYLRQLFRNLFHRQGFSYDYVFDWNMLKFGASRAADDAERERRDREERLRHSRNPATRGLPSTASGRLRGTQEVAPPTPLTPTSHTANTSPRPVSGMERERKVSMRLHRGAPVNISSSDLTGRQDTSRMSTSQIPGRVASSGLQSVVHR

SMILES	IC50 [1]	IC50 [2]	pancreatic tumor cell growth [3]
CC(C)(C)NC(=O)N1CCn2c(nc(-c3ccc(F)cc3)c2-c2ccc3nc(NC(=O)c4ccnc(F)c4)cn3n2)C1 [Compound 481, N-(tert-Butyl)-3-(2-(2-fluoroisonicotinamido)imidazo[1,2-b]pyridazin-6-yl)-2-(4-fluorophenyl)-5,6-dihydroimidazo[1,2-a]pyrazine-7(8H)-carboxamide]	5.4 nM	0.6 nM	–
CC(C)NC(=O)N1CCn2c(nc(-c3ccc(F)cc3)c2-c2ccc3nc(NC(=O)c4ccnc(F)c4)cn3n2)C1 [Compound 482, 3-(2-(2-Fluoroisonicotinamido)imidazo[1,2-b]pyridazin-6-yl)-2-(4-fluorophenyl)-N-isopropyl-5,6-dihydroimidazo[1,2-a]pyrazine-7(8H)-carboxamide]	11.9 nM	1.1 nM	–
O=C(Nc1cn2nc(-c3c(-c4ccc(F)cc4)nc4n3CCN(C(=O)NC3CC3)C4)ccc2n1)c1ccnc(F)c1 [Compound 483, N-Cyclopropyl-3-(2-(2-fluoroisonicotinamido)imidazo[1,2-b]pyridazin-6-yl)-2-(4-fluorophenyl)-5,6-dihydroimidazo[1,2-a]pyrazine-7(8H)-carboxamide]	3.9 nM	0.4 nM	–
CC(C)(NC(=O)N1CCn2c(nc(-c3ccc(F)cc3)c2-c2ccc3nc(NC(=O)c4ccnc(F)c4)cn3n2)C1)C(F)(F)F [Compound 484, 3-(2-(2-Fluoroisonicotinamido)imidazo[1,2-b]pyridazin-6-yl)-2-(4-fluorophenyl)-N-(1,1,1-trifluoro-2-methylpropan-2-yl)-5,6-dihydroimidazo[1,2-a]pyrazine-7(8H)-carboxamide]	6.7 nM	0.6 nM	–
CC1(NC(=O)N2CCn3c(nc(-c4ccc(F)cc4)c3-c3ccc4nc(NC(=O)c5ccnc(F)c5)cn4n3)C2)CC1 [Compound 485, 3-(2-(2-Fluoroisonicotinamido)imidazo[1,2-b]pyridazin-6-yl)-2-(4-fluorophenyl)-N-(1-methylcyclopropyl)-5,6-dihydroimidazo[1,2-a]pyrazine-7(8H)-carboxamide]	4.5 nM	0.5 nM	–
O=C(Nc1cn2nc(-c3c(-c4ccc(F)cc4)nc4n3CCN(C(=O)NCCC(F)(F)F)C4)ccc2n1)c1ccnc(F)c1 [Compound 486, 3-(2-(2-Fluoroisonicotinamido)imidazo[1,2-b]pyridazin-6-yl)-2-(4-fluorophenyl)-N-(3,3,3-trifluoropropyl)-5,6-dihydroimidazo[1,2-a]pyrazine-7(8H)-carboxamide]	6.4 nM	0.7 nM	–
CC(C)OC(=O)N1CCn2c(nc(-c3ccc(F)cc3)c2-c2ccc3nc(NC(=O)c4ccnc(F)c4)cn3n2)C1 [Example 475]	8.1 nM	0.7 nM	–
COc1cc(OC)c(C=C2C(O)=Nc3ccccc32)c(OC)c1 [IC261]	–	–	reduces pancreatic tumor cell growth in vitro and in vivo
